Results published in PMC4589371, “Molecular Binding Mechanism of TtgR Repressor to Antibiotics and Antimicrobials” (PLoS ONE, 2015).

Key:
[1] = molecular target: TtgR (TtgR^WT) (Pseudomonas putida, UniProt Q9AIU0, E78A); assay: biochemical
From the text: (§1) isothermal titration calorimetry, one set of sites on TtgR (TtgR^WT)

[2] = molecular target: TtgR (TtgR^WT) (Pseudomonas putida, UniProt Q9AIU0, N110A); assay: biochemical
From the text: as §1

[3] = molecular target: TtgR (TtgR^WT) (Pseudomonas putida, UniProt Q9AIU0, H114A); assay: biochemical
From the text: as §1

[4] = molecular target: T1, TtgR (TtgR^WT) (Pseudomonas putida, UniProt Q9AIU0); assay: isothermal titration calorimetry, one set of sites; assay type: binding
T1 construct: homodimer

[5] = test system: TtgR N110A (Pseudomonas putida DOT-T1E); assay: EMSA; details: 5 uM phloretin; EMSA: 10 mM Tris-HCl pH 7.0, 250 mM NaCl, 10 mM Mg acetate, 10 mM KCl, 5% glycerol, 0.1 mM EDTA, 5 mM DTT, 20 ug/ml poly(dI-dC), 200 ug/ml BSA; 10 min at 30 C …
[6] = test system: TtgR H114A (Pseudomonas putida DOT-T1E); assay: EMSA; details: 5 uM naringenin; EMSA: 10 mM Tris-HCl pH 7.0, 250 mM NaCl, 10 mM Mg acetate, 10 mM KCl, 5% glycerol, 0.1 mM EDTA, 5 mM DTT, 20 ug/ml poly(dI-dC), 200 ug/ml BSA; 10 min at 30 C …
[7] = test system: TtgR E78A (Pseudomonas putida DOT-T1E); assay: EMSA; details: 5 uM naringenin; EMSA: 10 mM Tris-HCl pH 7.0, 250 mM NaCl, 10 mM Mg acetate, 10 mM KCl, 5% glycerol, 0.1 mM EDTA, 5 mM DTT, 20 ug/ml poly(dI-dC), 200 ug/ml BSA; 10 min at 30 C …

| Compound | Kd [1] | Kd [2] | Kd [3] | Kd [4] | binding signal (% DNA dissociated) [5] | binding signal (% DNA released) [6] | binding signal (% DNA released) [7] |
| --- | --- | --- | --- | --- | --- | --- | --- |
| O=C(N[C@H](CO)[C@H](O)c1ccc([N+](=O)[O-])cc1)C(Cl)Cl [chloramphenicol] | 18.5 ± 1 µM | 15.6 ± 2 µM | 8.5 ± 0.5 µM | 5.6 ± 0.4 µM | – | – | – |
| O=C(CCc1ccc(O)cc1)c1c(O)cc(O)cc1O [phloretin] | 0.7 ± 0.1 µM | 1 ± 0.1 µM | 1.3 ± 0.1 µM | 1.5 ± 0.2 µM | – | – | – |
| ttgABC-ttgR intergenic region (operator), 189 bp | – | – | – | – | 66 | 30 | 30 |
